Patent US20250144051A1, “Colchicine for Treating Connective Tissue Disorders” (Khan Sciences, Inc., priority 2023, published 2025)

Experiments:
Collagen I (human) = test: In vitro tendinopathy model, collagen I ELISA in tenocyte culture supernatant; type: cell-based
Protocol: (§1) In Vitro Tendinopathy Model: The below experiment was conducted on an in vitro tendinopathy model. Cells derived from human tendons (tenocytes) can serve as an in vitro model of tendons. See Miller et al., “MicroRNA29a regulates IL-33-mediated tissue remodelling in tendon disease.” Nat Commun 6, 6774 (2015). Cultured tenocytes can be used to investigate the effects of pro-inflammatory cytokines upon the most basic elements of tendon structure. See Ellis et al., “Defining the profile: Characterizing cytokines in tendon injury to improve clinical therapy.” Journal of Immunology and Regenerative Medicine 16, 100059 (2022). When a tendon is injured, it triggers a local inflammatory response that involves immune cell infiltration and the expression of pro-inflammatory mediators. This inflammatory environment can modify tenocyte physiology, causing them to become activated and pro-inflammatory. Exposing the tenocytes to the pro-inflammatory cytokines TNF-α and IL-1β can mimic the effects of tendon injury. See Smith et al., “Tumour necrosis factor alpha, interleukin 1 beta and interferon gamma have detrimental effects on equine tenocytes that cannot be rescued by IL-1RA or mesenchymal stromal cell-derived factors.” Cell Tissue Res 391, 523-544 (2023).
(§2) Cell Culture System. Immortalized, healthy, commercially-sourced human tenocyte cells (donor, patellar tendon) were reconstituted, seeded in T-75 flasks coated with bovine collagen I, and were maintained in Tenocyte Growth Medium supplemented with Tenocyte Growth Supplement, FBS, and penicillin/streptomycin. Culture conditions were maintained at 37° C. in a humidified 5% CO2 atmosphere. Cells were seeded at a density of 100,000 cells/well in commercially-sourced 24-well plates that were pre-coated with rat tail tendon collagen I.
(§3) Treatment Protocol. This study was designed to follow the time-course of collagen production after cytokine exposure to mimic the effects of tendon injury. The time variable was cytokine exposure time (6 hours, 1 day, 3 days, and 5 days). Each of these cytokine exposure time periods was followed by a 24-hour drug treatment period. Inflammatory conditions were induced using a combination of IL-1β (1 nM; 17 ng/ml) and TNF-α (10 ng/ml). Two therapeutic interventions were evaluated. The treatment designated as “treatment A” was colchicine (2 nM). The treatment designated as “treatment B” was colchicine (2 nM) plus pyridoxine (100 μM).
(§4) Experimental Groups. The treatment groups were as follows: (1) exposed to inflammatory cytokines plus treatment A; (2) exposed to inflammatory cytokines plus treatment B; (3) exposed to inflammatory cytokines (negative control, no drug). Further reference control groups were as follows: (A) treatment A without inflammatory cytokine exposure (drug-only control); (B) treatment B without inflammatory cytokine exposure (drug-only control); (C) healthy control (no inflammatory cytokines, no drug treatment).
Sample Collection Times. […]
(§5) Assays Used. Collagen I (human) content was measured using enzyme-linked immunosorbent assay (ELISA) in cell culture supernatants. TGF-β1 in cell culture supernatants were measured using the MSD multiplex platform. Other inflammatory cytokines in cell culture supernatants were measured using the MSD multiplex platform.

IFN-γ = test: In vitro tendinopathy model, IFN-γ in tenocyte supernatant (MSD multiplex); type: cell-based, human; design: IFN-γ, % of negative control / reduction of IFN-γ levels compared to negative control: concentration or dose not given beside the values
Protocol: as §1, §2, §3, §4
(§6) Sample Collection Times. Samples were collected at the following timepoints after initiation of cytokine exposure: • 6-hour samples: Collection at 30 hours (6 hr cytokine exposure+24 hr drug treatment) • 1-day samples: Collection at 48 hours (24 hr cytokine exposure+24 hr drug treatment) • 3-day samples: Collection at 96 hours (72 hr cytokine exposure+24 hr drug treatment) • 5-day samples: Collection at 144 hours (120 hr cytokine exposure+24 hr drug treatment, cell culture medium replenished on day-3)
as §5

TNF-α = test: In vitro tendinopathy model, TNF-α in tenocyte supernatant (MSD multiplex); type: cell-based, human
Protocol: as §1, §2, §3, §4, §6, §5

VEGF = test: In vitro tendinopathy model, VEGF in tenocyte supernatant (MSD multiplex); type: cell-based, human; design: VEGF, % of negative control / increase of VEGF levels compared to negative control: concentration or dose not given beside the values
Protocol: as §1, §2, §3, §4, §6, §5

TGF-β1 = test: In vitro tendinopathy model, TGF-β1 in tenocyte supernatant (MSD multiplex); type: cell-based, human
Protocol: as §1, §2, §3, §4, §6, §5

[1] = 6 hr cytokine exposure + 24 hr drug treatment
[2] = 1 day cytokine exposure + 24 hr drug treatment
[3] = 3 days cytokine exposure + 24 hr drug treatment
[4] = 5 days cytokine exposure + 24 hr drug treatment

COc1cc2c(c(OC)c1OC)-c1ccc(OC)c(=O)cc1[C@@H](NC(C)=O)CC2 [Treatment A, colchicine]
collagen I level (Collagen I (human); 6 hr IL-1β + TNF-α exposure + 24 hr drug treatment, negative control 24 ng/mL): 20 ng/mL
collagen I level (Collagen I (human); 1 day IL-1β + TNF-α exposure + 24 hr drug treatment, negative control 20 ng/ml): 19 ng/mL
collagen I level (Collagen I (human); 3 days IL-1β + TNF-α exposure + 24 hr drug treatment, negative control 23 ng/ml): 21 ng/mL
collagen I level (Collagen I (human); 5 days IL-1β + TNF-α exposure + 24 hr drug treatment, negative control 28 ng/ml): 28 ng/mL
collagen I level (Collagen I (human); drug alone, without inflammatory cytokines, healthy control 30 ng/ml): 17 ng/mL
reduction of IFN-γ levels compared to negative control (IFN-γ; 6-hour timepoint): 28.4%
IFN-γ, % of healthy level (IFN-γ; [1]): 154.5%
IFN-γ, % of negative control (IFN-γ; [1]): 71.6%
IFN-γ level (IFN-γ; 6 hr cytokine exposure + 24 hr drug treatment, negative control 17.6 pg/ml): 12.6 pg/mL
IFN-γ, % of healthy level (IFN-γ; [2]): 186.9%
IFN-γ, % of negative control (IFN-γ; [2]): 98.0%
IFN-γ level (IFN-γ; 1 day cytokine exposure + 24 hr drug treatment, negative control 15.6 pg/ml): 15.3 pg/mL
IFN-γ, % of healthy level (IFN-γ; [3]): 112.1%
IFN-γ, % of negative control (IFN-γ; [3]): 72.4%
IFN-γ level (IFN-γ; 3 days cytokine exposure + 24 hr drug treatment, negative control 12.7 pg/mL): 9.2 pg/mL
IFN-γ, % of healthy level (IFN-γ; [4]): 160.7%
IFN-γ, % of negative control (IFN-γ; [4]): 80.7%
IFN-γ level (IFN-γ; 5 days cytokine exposure + 24 hr drug treatment, negative control 16.3 pg/mL): 13.1 pg/mL
IFN-γ level (IFN-γ; drug alone, without inflammatory cytokines, healthy control 8.2 pg/mL): 3.1 pg/mL
TNF-α, % of healthy level (TNF-α; [1]): 926.9%
TNF-α, % of negative control (TNF-α; [1]): 116.7%
TNF-α level (TNF-α; 6 hr cytokine exposure + 24 hr drug treatment, negative control 1678.4 pg/mL): 1958.4 pg/mL
TNF-α, % of healthy level (TNF-α; [2]): 806.3%
TNF-α, % of negative control (TNF-α; [2]): 129.3%
TNF-α level (TNF-α; 1 day cytokine exposure + 24 hr drug treatment, negative control 1317.2 pg/mL): 1703.5 pg/mL
TNF-α, % of healthy level (TNF-α; [3]): 617.0%
TNF-α, % of negative control (TNF-α; [3]): 135.8%
TNF-α level (TNF-α; 3 days cytokine exposure + 24 hr drug treatment, negative control 960.1 pg/mL): 1303.6 pg/mL
TNF-α, % of healthy level (TNF-α; [4]): 424.1%
TNF-α, % of negative control (TNF-α; [4]): 108.7%
TNF-α level (TNF-α; 5 days cytokine exposure + 24 hr drug treatment, negative control 824.1 pg/mL): 895.9 pg/mL
TNF-α level (TNF-α; drug alone, without inflammatory cytokines, healthy control 211.3 pg/mL): 1.1 pg/mL
VEGF, % of healthy level (VEGF; [1]): 263.2%
VEGF, % of negative control (VEGF; [1]): 157.0%
VEGF level (VEGF; 6 hr cytokine exposure + 24 hr drug treatment, negative control 333.6 pg/mL): 523.8 pg/mL
VEGF, % of healthy level (VEGF; [2]): 401.8%
VEGF, % of negative control (VEGF; [2]): 133.4%
VEGF level (VEGF; 1 day cytokine exposure + 24 hr drug treatment, negative control 599.5 pg/mL): 799.7 pg/mL
VEGF, % of healthy level (VEGF; [3]): 314.0%
VEGF, % of negative control (VEGF; [3]): 112.6%
VEGF level (VEGF; 3 days cytokine exposure + 24 hr drug treatment, negative control 555.0 pg/mL): 624.9 pg/mL
VEGF, % of healthy level (VEGF; [4]): 229.0%
VEGF, % of negative control (VEGF; [4]): 117.9%
VEGF level (VEGF; 5 days cytokine exposure + 24 hr drug treatment, negative control 386.6 pg/mL): 455.8 pg/mL
increase of VEGF levels compared to negative control (VEGF; at 6 hours): 57%
VEGF level (VEGF; drug alone, without inflammatory cytokines, healthy control 199.0 pg/mL): 621.7 pg/mL
TGF-β1, % of negative control (TGF-β1; [1]): 127%
TGF-β1 level (TGF-β1; 6 hr cytokine exposure + 24 hr drug treatment, negative control 0.97 ng/ml): 1.23 ng/mL
TGF-β1, % of negative control (TGF-β1; [2]): 104%
TGF-β1 level (TGF-β1; 1 day cytokine exposure + 24 hr drug treatment, negative control 1.22 ng/ml): 1.28 ng/mL
TGF-β1, % of healthy baseline (TGF-β1; [3]): 112%
TGF-β1, % of negative control (TGF-β1; [3]): 114%
TGF-β1 level (TGF-β1; 3 days cytokine exposure + 24 hr drug treatment, negative control 1.70 ng/ml): 1.94 ng/mL
TGF-β1, % of negative control (TGF-β1; [4]): 108%
TGF-β1 level (TGF-β1; 5 days cytokine exposure + 24 hr drug treatment, negative control 1.22 ng/mL): 1.32 ng/mL
TGF-β1 level (TGF-β1; drug alone, without inflammatory cytokines, healthy control 1.73 ng/ml): 1.90 ng/mL
TGF-β1, % of healthy baseline (TGF-β1; drug-only control, without inflammatory cytokines): 110%
